BigSolDB 2.1

CN1CCN(C(=O)O[C@H]2c3nccnc3C(=O)N2c2ccc(Cl)cn2)CC1
solubility (mole fraction) (in acetone, 288.15 K): 0.0013
solubility (mole fraction) (in acetone, 293.15 K): 0.0015
solubility (mole fraction) (in acetone, 298.15 K): 0.0019
solubility (mole fraction) (in acetone, 303.15 K): 0.0023
solubility (mole fraction) (in acetone, 308.15 K): 0.0027
solubility (mole fraction) (in acetone, 313.15 K): 0.0032
solubility (mole fraction) (in acetone, 318.15 K): 0.0037
solubility (mole fraction) (in ethanol, 288.15 K): 0.0002
solubility (mole fraction) (in ethanol, 293.15 K): 0.0003
solubility (mole fraction) (in ethanol, 298.15 K): 0.0004
solubility (mole fraction) (in ethanol, 303.15 K): 0.0004
solubility (mole fraction) (in ethanol, 308.15 K): 0.0005
solubility (mole fraction) (in ethanol, 313.15 K): 0.0007
solubility (mole fraction) (in ethanol, 318.15 K): 0.0009
solubility (mole fraction) (in ethanol, 323.15 K): 0.001
solubility (mole fraction) (in ethanol, 328.15 K): 0.0012
